From patent US7550463B2, “Carbamoylpyridone derivatives having inhibitory activity against HIV integrase” (Shionogi & Co., Ltd., priority 2004, dated 2009)

What was measured:
HIV integrase = HIV integrase (Human immunodeficiency virus type 1 group M subtype B, UniProt P04585); experiment: HIV integrase inhibitory activity assay (immunoplate, substrate DNA / target DNA, OD 405 nm); format: biochemical; details: read-out: Integrase inhibitory activity (IC50, ng/ml) (converted)
Description: The HIV integrase inhibitory activity was examined based on an assay method shown below.
(1) Preparation of DNA Solution
According to the same method as the method described in Test Example 1 of WO 2004/024693, a substrate DNA solution (2 pmol/μl) and a target DNA solution (5 pmol/μl) were prepared. […] Each sequence of a substrate DNA and a target DNA is as described in the same Test Example.
(2) Measurement of Inhibition Rate (IC50 Value)
Streptavidin (manufactured by Vector Laboratories) was dissolved in a 0. 1M carbonate buffer (composition: 90 mM Na2CO3, 10 mM NaHCO3 )to a concentration of 40 μg/ml. Each 50 μl of this solution was added to a well of an immunoplate (manufactured by NUNC), and this was allowed to stand at 4° C. overnight to perform adsorption. Then, each well was washed with, a phosphate buffer (composition: 13.7 mM NaCl, 0.27 mM KCl, 0.43 mM. Na2HPO4, 0.14 mM KH2PO4) two times, 300 μl of a phosphate buffer containing 1% skim milk was added, and blocking was performed for 30 minutes. […]
Each plate was incubated at 30° C. for 10 minutes, and the reaction solution was discarded, followed by washing with a phosphate buffer two times. […] Inhibition rate (%)=100[1−{(C abs.−NC abs.)/(PC abs.−NC abs.)}] • C abs.; absorbance of well of compound • NC abs.: absorbance of NC • PC abs.: absorbance of PC

Row | SMILES | melting point | IC50 (HIV integrase)
1 | O=C(NCc1ccc(F)cc1)c1[nH]cc(C(=O)NCc2ccc(F)cc2)c(=O)c1O | 279 to 280 °C | –
2 | COC(=O)c1[nH]cc(C(=O)NCc2ccc(F)cc2)c(=O)c1O [Compound A-1a, Methyl 5-(4-fluorobenzylcarbamoyl)-3-hydroxy-4-oxo-1,4-dihydropyridine-2-carboxylate] | – | 0.02 µM
3 | O=C(O)c1[nH]cc(C(=O)NCc2ccc(F)cc2)c(=O)c1O [Compound A-3] | – | 0.0101 µM
